From patent US20260102503A1, “NANOCOMPOSITES FOR ENHANCED CELLULAR PAYLOAD DELIVERY” (priority 2022, published 2026)
Converted amounts (≈) assume the structure as drawn.

Key:
Type in all cases: cell-based
AT1 cells = assay: Nanocomposite cellular uptake mechanism study (endocytosis inhibitors, temperature block); conditions: 5 μM, 2 hours pretreatment, vs untreated cells
Protocol: To determine the NC/NP uptake mechanism used by cells, an endocytosis-inhibition examination was performed. Alveolar Type 1 cells were seeded at confluency in 48-well plates and attached overnight at 37° C. in an incubator with 5% CO2. Rhodamine B-loaded nanocomposites were prepared using a similar procedure done for other studies. After 24 hours of seeding, the AT1 cell culture medium was replaced by fresh 1% serum media containing 5 μM of Amiloride, 5 μM of methyl-β-cyclodextran, 5 μg/mL of Filipin III, 5 μM of Cytochalasin-D, 5 μM of Imipramine, 80 μM Dynasore, or 5 mM of Deoxy-glucose (Sigma Aldrich & Cayman Chemical). After 2 hours, fresh complete media with Rho B-labeled nanocomposites at a concentration of 0.5 mg/mL was added. […] Images were acquired using a fluorescent microscope and processed for NP uptake in random areas using 10 images from each inhibitor group with the ImageJ software.
In a similar fashion, to check if the nanocomposites undergo an energy-dependent uptake, temperature block was studied in AT1 cells by preincubating cells at 4° C. for 30 minutes, followed by treatment with fluorescent nanocomposites for 90 minutes at 4° C. Later, fluorescent images were acquired, and the cell lysates were analyzed for quantitative nanocomposite uptake.

MRSA = assay: microbe, parasite or virus in culture; conditions: Staphylococcus aureus, 24 h
[1] = system: primary alveolar type I epithelial cells (AT1); assay: Cytocompatibility (MTS) in AT1 cells; conditions: 72 hours, 0.0625-1 mg/mL, vs untreated control
Protocol: Primary lung epithelial cells, RAW macrophages, and HUVECs were used to assess toxicity of the nanocomposites. Nanocomposites were prepared as described in for AT1 cells, in which 20,000 cells/well of primary alveolar type I epithelial cells (AT1) were seeded in 48-well plates. After the overnight culture, various groups of particles including blank PLGA NPs, nanofibers only, and nanocomposites (nanofiber coated-PLGA nanoparticles) were given to the cells in triplicate at various concentrations ranging from 0.0625-1 mg/mL. The nanofiber concentration chosen was equivalent to the peptide amount conjugated onto the nanoparticles. After 72 hours, the cells were washed 3 times with PBS, and MTS reagent was applied to the cells to assess the cell viability following the company's instructions.
In this study, primary lung epithelial cells and kidney epithelial cells (Vero E6) were used to assess toxicity from NPs. NF-coated NPs were prepared as described above, in which 4000 cells/well of primary alveolar type I epithelial cells (AT1 cells) and Vero E6 cells were seeded in 96-well plates. After overnight culturing, RDV NCs were added to the cells in triplicate at various concentrations ranging from 0 to 1 mg/mL. An NF to NP ratio of 0.25 was used for the study. […]

Compound: C=C1[C@@H](C)[C@H]2[C@H](Cc3ccccc3)NC(=O)[C@]23[C@H](OC(C)=O)/C=C/[C@@](C)(O)C(=O)[C@@H](C)C/C=C/[C@H]3[C@@H]1O [cytochalasin-D]
- effect of endocytosis inhibitor on cellular uptake of NCs (AT1 cells): significant reduction in cellular uptake

Compound: CN[C@H](CC(C)C)C(=O)N[C@H]1C(=O)N[C@@H](CC(N)=O)C(=O)N[C@H]2C(=O)N[C@H]3C(=O)N[C@H](C(=O)N[C@H](C(=O)O)c4cc(O)cc(O)c4-c4cc3ccc4O)[C@H](O)c3ccc(c(Cl)c3)Oc3cc2cc(c3O[C@@H]2O[C@H](CO)[C@@H](O)[C@H](O)[C@H]2O[C@H]2C[C@](C)(N)[C@H](O)[C@H](C)O2)Oc2ccc(cc2Cl)[C@H]1O [free vancomycin, vancomycin]
- MIC (MRSA): 2 µg/mL (≈ 1.38 µM)

Compound: Ac-KKKKKKKKKKQWQWQWQWQWQWEEE-NH2 [NFs, K10(QW)6E3]
- cytocompatibility (cell viability, MTS) [1]: significant toxicity with concentrations ranging from 0.25-1 mg/mL
